Results from patent publication US10456410B2, “Hydrogen sulfide (H2S) releasing donor compound for dermal wound regeneration” (University of South Carolina, priority 2017, dated 2019).

Experiments:
[1] = H2S release kinetics from PCL-JK-1 fibrous scaffold, modified Methylene Blue method; settings: pH 6.0, PBS; PCL-JK-1 with 10% JK-1, JK-1 in solution as control (FIG. 4B)
[2] = H2S release from SA/JK-1 sponge at varied pH; settings: pH 6.0

## O=C([O-])CNP([O-])(=S)c1ccccc1.[Li+].[Li+] (centres unmarked) [JK-1]
[1]
  time to H2S peak concentration: ≤ 10 min
[2]
  time to H2S peak concentration: ≤ 55 min
